Measured values published in US20260285853A1, “COMPOUNDS AND METHODS FOR MODULATING SPLICING” (REMIX THERAPEUTICS INC., priority 2023, published 2026).
Read-outs that look alike come from different tables or passages of the source. Each block holds one compound with its values, some of them ahead of it.

How the values were obtained:
Assay type in all cases: cell-based
HTT mRNA [1] = experiment: Splicing RT-qPCR assay (THP), Table 2A
MYB mRNA [2] = experiment: Splicing RT-qPCR assay (THP), Table 2A
HTT mRNA [3] = experiment: Gene panel canonical junction qPCR assay, decrease in CJ mRNA, Table 3
Outline: (§1)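 Cells: A673 or K562; 24 h compound exposure, 37 °C, 5% CO2; 11-pt 3-fold series from 10 uM final; DMSO ≤0.25%. Lysate → cDNA → qPCR with junction-spanning primers/probe for CJ transcript. ΔCt vs housekeeper, ΔΔCt vs DMSO, 2^(−ΔΔCt), % response, 4PL → IC50.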

MYB mRNA [4] = experiment: as above
Outline: as §1

SMN2 mRNA = experiment: as above; conditions: decrease in canonical junction (CJ) mRNA, gene panel qPCR, Table 3
Outline: as §1

[5] = system: SH-SY5Y (human neuroblastoma) cells; experiment: Cell viability, Cell Titer Glo 2.0 assay; conditions: read-out: Viability SHSY5Y.3 GI50
Outline: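 CellTiter-Glo 2.0 luminescence read-out after 72 h compound exposure (37 °C, 5% CO2); medium-only wells as blank. DMSO 0.1% final.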

[6] = Table 2A (THP), AJ mRNA increase, read-out: HTT AJ (increase in alternative junction mRNA, AC50)
[7] = Table 2A (THP), CJ mRNA decrease, read-out: HTT CJ (decrease in canonical junction mRNA, IC50)
[8] = Table 2A (THP), AJ mRNA increase, read-out: MYB AJ (increase in alternative junction mRNA, AC50)
[9] = Table 2A (THP), CJ mRNA decrease, read-out: MYB CJ (decrease in canonical junction mRNA, IC50)
[10] = decrease in canonical junction (CJ) mRNA, gene panel qPCR, Table 3
[11] = Table 2A, THP, HTT alternative junction (AJ) mRNA, read-out: HTT AJ (AC50, increase in alternative junction mRNA)
[12] = Table 2A, THP, HTT canonical junction (CJ) mRNA, read-out: HTT CJ (IC50, decrease in canonical junction mRNA)
[13] = Table 2A, THP, MYB alternative junction (AJ) mRNA, read-out: MYB AJ (AC50, increase in alternative junction mRNA)
[14] = Table 2A, THP, MYB canonical junction (CJ) mRNA, read-out: MYB CJ (IC50, decrease in canonical junction mRNA)
[15] = decrease in CJ mRNA levels, canonical junction qPCR, gene panel

Compound: CCNC1CCN(c2cc(F)c(C(=O)Nc3nc4c(C)nc(C)cn4n3)c3nn(C)cc23)CC1 [Compound 301, N-(6,8-dimethyl-[1,2,4]triazolo[1,5-a]pyrazin-2-yl)-4-(4-(ethylamino)piperidin-1-yl)-6-fluoro-2-methyl-2H-indazole-7-carboxamide 2,2,2-trifluoroacetate]
AC50 (HTT mRNA [1]; [6]): > 10 µM | IC50 (HTT mRNA [1]; [7]): 1 to 10 µM | AC50 (MYB mRNA [2]; [8]): > 10 µM | IC50 (MYB mRNA [2]; [9]): > 10 µM | IC50 (HTT mRNA [3]; [10]): 1 to 10 µM | IC50 (MYB mRNA [4]; [10]): > 10 µM | IC50 (SMN2 mRNA): 1 to 10 µM | GI50 [5]: > 10 µM

Compound: CCNC1CCN(c2cc(F)c(C(=O)Nc3cc4c(C)nc(C)cn4n3)c3nn(C)cc23)CC1 [Compound 302, N-(4,6-dimethylpyrazolo [1,5-a]pyrazin-2-yl)-4-[4-(ethylamino)-1-piperidyl]-6-fluoro-2-methyl-indazole-7-carboxamide]
AC50 (HTT mRNA [1]; [6]): > 10 µM | IC50 (HTT mRNA [1]; [7]): > 10 µM | AC50 (MYB mRNA [2]; [8]): > 10 µM | IC50 (MYB mRNA [2]; [9]): > 10 µM | IC50 (HTT mRNA [3]; [10]): > 10 µM | IC50 (MYB mRNA [4]; [10]): > 10 µM | IC50 (SMN2 mRNA): > 10 µM | GI50 [5]: > 10 µM

Compound: CCNC1CCN(c2cc(F)c(C(=O)Nc3cn4c(C)c(C)nc4c(F)c3OC)c3nn(C)cc23)CC1 [Compound 305, 4-[4-(ethylamino)piperidin-1-yl]-6-fluoro-N-(8-fluoro-7-methoxy-2,3-dimethyl-imidazo[1,2-a]pyridin-6-yl)-2-methylindazole-7-carboxamide]
AC50 (HTT mRNA [1]; [6]): > 10 µM | IC50 (HTT mRNA [1]; [7]): > 10 µM | AC50 (MYB mRNA [2]; [8]): > 10 µM | IC50 (MYB mRNA [2]; [9]): > 10 µM | IC50 (HTT mRNA [3]; [10]): > 10 µM | IC50 (MYB mRNA [4]; [10]): > 10 µM | IC50 (SMN2 mRNA): > 10 µM | GI50 [5]: > 10 µM

Compound: Cn1cc2cc(NC(=O)c3ccc(N4CCC(NC5CC5)CC4)c4cn(C)nc34)cc(CNc3cn[nH]c3)c2n1 [Compound 883]
AC50 (HTT mRNA [1]; [11]): > 10 µM | IC50 (HTT mRNA [1]; [12]): > 10 µM | AC50 (MYB mRNA [2]; [13]): 1 to 10 µM | IC50 (MYB mRNA [2]; [14]): 1 to 10 µM | IC50 (HTT mRNA [3]; [15]): > 10 µM | IC50 (MYB mRNA [4]; [15]): 1 to 10 µM | GI50 [5]: > 10 µM

Compound: CCNC1CCN(c2ccc(C(=O)Nc3cn4cc(C)nc(CNS(C)(=O)=O)c4n3)c3nn(C)cc23)CC1 [Compound 884]
AC50 (HTT mRNA [1]; [11]): > 10 µM | IC50 (HTT mRNA [1]; [12]): > 10 µM | AC50 (MYB mRNA [2]; [13]): 1 to 10 µM | IC50 (MYB mRNA [2]; [14]): 1 to 10 µM | IC50 (HTT mRNA [3]; [15]): > 10 µM | IC50 (MYB mRNA [4]; [15]): 1 to 10 µM | GI50 [5]: > 10 µM

Compound: Cc1cn2cc(NC(=O)c3ccc(N4CC5CCC(C4)N5)c4cn(C)nc34)nc2c(CNS(C)(=O)=O)n1 [Compound 885, 4-(3,8-diazabicyclo[3.2.1]octan-3-yl)-N-[8-(methanesulfonamidomethyl)-6-methyl-imidazo[1,2-a]pyrazin-2-yl]-2-methyl-indazole-7-carboxamide]
AC50 (HTT mRNA [1]; [11]): 1 to 10 µM | IC50 (HTT mRNA [1]; [12]): 1 to 10 µM | AC50 (MYB mRNA [2]; [13]): 1 to 10 µM | IC50 (MYB mRNA [2]; [14]): 1 to 10 µM | IC50 (HTT mRNA [3]; [15]): 1 to 10 µM | IC50 (MYB mRNA [4]; [15]): 1 to 10 µM | GI50 [5]: 1 to 10 µM

Further lines, with some results ahead:

IC50 (HTT mRNA [1]; [7]): 1 to 10 µM | IC50 (MYB mRNA [2]; [9]): 0.1 to 1 µM | IC50 (HTT mRNA [3]; [10]): 1 to 10 µM | IC50 (MYB mRNA [4]; [10]): 0.1 to 1 µM | IC50 (SMN2 mRNA): < 0.1 µM | GI50 [5]: 1 to 10 µM
Compound: Cc1cn2cc(NC(=O)c3ccc(N4CC(CNC5CC5)C4)c4cn(C)nc34)cc(F)c2n1 [Compound 298, 4-[3-[(cyclopropylamino)-methyl]azetidin-1-yl]-N-(8-fluoro-2-methylimidazo[1,2-a]pyridin-6-yl)-2-methylindazole-7-carboxamide]
AC50 (HTT mRNA [1]; [6]): 1 to 10 µM | AC50 (MYB mRNA [2]; [8]): 0.1 to 1 µM

IC50 (HTT mRNA [1]; [7]): > 10 µM | IC50 (MYB mRNA [2]; [9]): > 10 µM | IC50 (HTT mRNA [3]; [10]): > 10 µM | IC50 (MYB mRNA [4]; [10]): > 10 µM | IC50 (SMN2 mRNA): > 10 µM | GI50 [5]: > 10 µM
Compound: CCNC1CCN(c2cc(F)c(C(=O)Nc3cc(F)c4nc(C)n(C)c4c3)c3nn(C)cc23)CC1 [Compound 299, 4-[4-(ethylamino)-1-piperidyl]-6-fluoro-N-(7-fluoro-2,3-dimethyl-benzimidazol-5-yl)-2-methyl-indazole-7-carboxamide]
AC50 (HTT mRNA [1]; [6]): > 10 µM | AC50 (MYB mRNA [2]; [8]): > 10 µM

IC50 (HTT mRNA [1]; [7]): > 10 µM | IC50 (MYB mRNA [2]; [9]): > 10 µM | IC50 (HTT mRNA [3]; [10]): > 10 µM | IC50 (MYB mRNA [4]; [10]): > 10 µM | IC50 (SMN2 mRNA): 1 to 10 µM | GI50 [5]: 1 to 10 µM
Compound: CCNC1CCN(c2cc(F)c(C(=O)Nc3cc(F)c4cn(C)nc4c3)c3nn(C)cc23)CC1 [Compound 300, 4-[4-(ethylamino)-1-piperidyl]-6-fluoro-N-(4-fluoro-2-methylindazol-6-yl)-2-methyl-indazole-7-carboxamide]
AC50 (HTT mRNA [1]; [6]): > 10 µM | AC50 (MYB mRNA [2]; [8]): > 10 µM

IC50 (HTT mRNA [1]; [7]): > 10 µM | IC50 (MYB mRNA [2]; [9]): > 10 µM | IC50 (HTT mRNA [3]; [10]): > 10 µM | IC50 (MYB mRNA [4]; [10]): > 10 µM | IC50 (SMN2 mRNA): > 10 µM | GI50 [5]: 1 to 10 µM
Compound: CCNC1CCN(c2ccc(C(=O)Nc3cc(F)c4cnccc4c3)c3nn(C)cc23)CC1 [Compound 303, 4-[4-(ethylamino)-1-piperidyl]-N-(8-fluoro-6-isoquinolyl)-2-methylindazole-7-carboxamide]
AC50 (HTT mRNA [1]; [6]): > 10 µM | AC50 (MYB mRNA [2]; [8]): > 10 µM

IC50 (HTT mRNA [1]; [7]): > 10 µM | IC50 (MYB mRNA [2]; [9]): > 10 µM | IC50 (HTT mRNA [3]; [10]): > 10 µM | IC50 (MYB mRNA [4]; [10]): > 10 µM | IC50 (SMN2 mRNA): 0.1 to 1 µM | GI50 [5]: 1 to 10 µM
Compound: CCNC1CCN(c2cc(F)c(C(=O)Nc3cn4cc(C5CC5)nc4c(F)c3OC)c3nn(C)cc23)CC1 [Compound 304, N-(2-cyclopropyl-8-fluoro-7-methoxyimidazo [1,2-a]pyridin-6-yl)-4-[4-(ethylamino)-piperidin-1-yl]-6-fluoro-2-methylindazole-7-carboxamide]
AC50 (HTT mRNA [1]; [6]): > 10 µM | AC50 (MYB mRNA [2]; [8]): > 10 µM

IC50 (HTT mRNA [1]; [7]): > 10 µM | IC50 (MYB mRNA [2]; [9]): < 0.1 µM | IC50 (HTT mRNA [3]; [10]): > 10 µM | IC50 (MYB mRNA [4]; [10]): < 0.1 µM | IC50 (SMN2 mRNA): < 0.1 µM | GI50 [5]: 1 to 10 µM
Compound: CCNC1CCN(c2cc(F)c(C(=O)Nc3cn4cc(C)nc(C)c4n3)c3nn(C)cc23)CC1 [Compound 306, N-(6,8-dimethylimidazo[1,2-a]pyrazin-2-yl)-4-(4-(ethylamino)-piperidin-1-y1)-6-fluoro-2-methyl-2H-indazole-7-carboxamide 2,2,2-trifluoroacetate]
AC50 (HTT mRNA [1]; [6]): 1 to 10 µM | AC50 (MYB mRNA [2]; [8]): < 0.1 µM

IC50 (HTT mRNA [1]; [7]): 1 to 10 µM | IC50 (MYB mRNA [2]; [9]): 0.1 to 1 µM | IC50 (HTT mRNA [3]; [10]): 1 to 10 µM | IC50 (MYB mRNA [4]; [10]): 0.1 to 1 µM | IC50 (SMN2 mRNA): < 0.1 µM | GI50 [5]: 1 to 10 µM
Compound: CCNC1CCN(c2ccc(C(=O)Nc3cc(C#N)c4nc(C)cn4c3)c3nn(C)cc23)CC1 [Compound 307, N-(8-cyano-2-methyl-imidazo[1,2-a]pyridin-6-yl)-4-[4-(ethylamino)-1-piperidyl]-2-methyl-indazole-7-carboxamide]
AC50 (HTT mRNA [1]; [6]): 1 to 10 µM | AC50 (MYB mRNA [2]; [8]): 0.1 to 1 µM

IC50 (HTT mRNA [1]; [7]): > 10 µM | IC50 (MYB mRNA [2]; [9]): > 10 µM | IC50 (HTT mRNA [3]; [10]): > 10 µM | IC50 (MYB mRNA [4]; [10]): > 10 µM | IC50 (SMN2 mRNA): 0.1 to 1 µM | GI50 [5]: 1 to 10 µM
Compound: CCNC1CCN(c2cc(F)c(C(=O)Nc3cn4c(Cl)c(C)nc4c(F)c3OC)c3nn(C)cc23)CC1 [Compound 308, N-(3-chloro-8-fluoro-7-methoxy-2-methyl-imidazo [1,2-a]pyridin-6-yl)-4-[4-(ethylamino)-1-piperidyl]-6-fluoro-2-methyl-indazole-7-carboxamide]
AC50 (HTT mRNA [1]; [6]): > 10 µM | AC50 (MYB mRNA [2]; [8]): > 10 µM

IC50 (HTT mRNA [1]; [12]): > 10 µM | IC50 (MYB mRNA [2]; [14]): 0.1 to 1 µM | IC50 (HTT mRNA [3]; [15]): > 10 µM | IC50 (MYB mRNA [4]; [15]): 0.1 to 1 µM | GI50 [5]: 1 to 10 µM
Compound: Cn1cc2cc(NC(=O)c3ccc(N4CCC(NC5CC5)CC4)c4cn(C)nc34)cc(CNc3cncs3)c2n1 [Compound 882]
AC50 (HTT mRNA [1]; [11]): > 10 µM | AC50 (MYB mRNA [2]; [13]): 0.1 to 1 µM
